Patent US20140031278A1, “Novel Glucagon Analogues” (NOVO NORDISK A/S, priority 2011, published 2014)
*1 amine or outer side, *2 acyl side, *3 side chain or, on linkers, in order; H or OH if unused. Where a SMILES comes first, the peptide text is derived from it. Side-chain parts run from the residue outwards. γGlu = O=C(O)[C@H](CCC(=O)[*:2])N[*:1]; Suc = O=C(CCC(=O)[*:2])[*:1]

target: T1, glucagon receptor (Homo sapiens, UniProt P47871); assay: Assay (I) Glucagon activity (cAMP biosensor, FLIPR); assay type: cell-based; details: HEK-293 cells with cloned glucagon receptor and cAMP biosensor; end point after 6 minutes
T1 construct: expressed in transfected cells
Method: The glucagon receptor was cloned into HEK-293 cells having a membrane bound cAMP biosensor (ACTOne™). The cells (14000 per well) were incubated (37° C., 5% CO2) overnight in 384-well plates. Next day the cells were loaded with a calcium responsive dye that only distributed into the cytoplasm. Probenecid, an inhibitor of the organic anion transporter, was added to prevent the dye from leaving the cell. A PDE inhibitor was added to prevent formatted cAMP from being degraded, The plates were placed into a […] and the glucagon analogues were added. End point data were collected after 6 minutes. An increase in intracellular cAMP was proportional to an increased in calcium concentrations in the cytoplasm. When calcium was bound the dry a fluorescence signal was generated. EC50-values were calculated in Prism5.

T1 sequence (P47871 26-477): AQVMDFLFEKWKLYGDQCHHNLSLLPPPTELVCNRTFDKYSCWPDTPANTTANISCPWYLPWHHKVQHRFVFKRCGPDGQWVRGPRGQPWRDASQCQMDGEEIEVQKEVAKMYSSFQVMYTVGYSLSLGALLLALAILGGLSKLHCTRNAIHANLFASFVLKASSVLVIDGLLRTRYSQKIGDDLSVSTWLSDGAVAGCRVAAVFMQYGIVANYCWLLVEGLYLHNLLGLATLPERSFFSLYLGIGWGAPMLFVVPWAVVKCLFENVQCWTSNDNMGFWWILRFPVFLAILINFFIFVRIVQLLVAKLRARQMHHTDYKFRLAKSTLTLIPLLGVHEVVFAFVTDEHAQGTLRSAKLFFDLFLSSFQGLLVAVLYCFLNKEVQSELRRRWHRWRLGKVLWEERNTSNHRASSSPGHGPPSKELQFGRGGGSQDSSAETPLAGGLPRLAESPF

Compound	EC50 [nM]
CC(=O)N[C@@H](CCC(=O)N[C@@H](CCC(=O)N[C@@H](CCC(=O)N[C@@H](CCC(=O)NCCCC[C@H](NC(=O)[C@@H](NC(=O)[C@H](Cc1ccccc1)NC(=O)[C@H](CC(=O)O)NC(=O)[C@H](CCC(N)=O)NC(=O)[C@H](C)NC(=O)[C@H](CCCNC(=N)N)NC(=O)[C@H](CCCNC(=N)N)NC(=O)[C@H](CC(C)C)NC(=O)[C@H](CC(=O)O)NC(=O)[C@H](CC(C)C)NC(=O)[C@H](Cc1ccc(O)cc1)NC(=O)[C@H](CCCNC(=N)N)NC(=O)[C@H](CO)NC(=O)[C@H](Cc1ccc(O)cc1)NC(=O)[C@H](CC(=O)O)NC(=O)[C@H](CO)NC(=O)[C@@H](NC(=O)[C@H](Cc1ccccc1)NC(=O)[C@@H](NC(=O)CNC(=O)[C@H](CCC(N)=O)NC(=O)[C@H](CO)NC(=O)[C@@H](N)Cc1c[nH]cn1)[C@@H](C)O)[C@@H](C)O)C(C)C)C(=O)N[C@@H](Cc1c[nH]c2ccccc12)C(=O)N[C@@H](CC(C)C)C(=O)N[C@@H](CC(C)C)C(=O)N[C@@H](CO)C(=O)N[C@H](C(=O)O)[C@@H](C)O)C(=O)O)C(=O)O)C(=O)O)C(=O)O [Example 39, N^ε24-[(4S)-4-[[(4S)-4-[[(4S)-4-[[(4S)-4-acetamido-4-carboxybutanoyl]amino]-4-carboxybutanoyl]amino]-4-carboxybutanoyl]amino]-4-carboxybutanoyl]-[Arg12,Leu16,Lys24,Leu27,Ser28]-Glucagon] (H-HSQGTFTSDYSRYLDLRRAQDFVK([γGlu-γGlu-γGlu-γGlu-Ac])WLLST-OH)	0.003
CC(=O)N[C@@H](CCC(=O)N[C@@H](CCC(=O)N[C@@H](CCC(=O)N[C@@H](CCC(=O)NCCCC[C@H](NC(=O)[C@@H](NC(=O)[C@H](Cc1ccccc1)NC(=O)[C@H](CC(=O)O)NC(=O)[C@H](CCC(N)=O)NC(=O)[C@H](C)NC(=O)[C@H](CCCNC(=N)N)NC(=O)[C@H](CCCNC(=N)N)NC(=O)[C@@H](NC(=O)[C@H](CCC(=O)O)NC(=O)[C@H](CC(C)C)NC(=O)[C@H](Cc1ccc(O)cc1)NC(=O)[C@H](CCCCN)NC(=O)[C@H](CO)NC(=O)[C@H](Cc1ccc(O)cc1)NC(=O)[C@H](CC(=O)O)NC(=O)[C@H](CO)NC(=O)[C@@H](NC(=O)[C@H](Cc1ccccc1)NC(=O)[C@@H](NC(=O)CNC(=O)[C@H](Cc1c[nH]cn1)NC(=O)[C@H](CO)NC(=O)[C@@H](N)Cc1c[nH]cn1)[C@@H](C)O)[C@@H](C)O)[C@@H](C)O)C(C)C)C(=O)N[C@@H](Cc1c[nH]c2ccccc12)C(=O)N[C@@H](CC(C)C)C(=O)N[C@@H](CC(C)C)C(=O)N[C@@H](CO)C(=O)N[C@H](C(=O)O)[C@@H](C)O)C(=O)O)C(=O)O)C(=O)O)C(=O)O [Example 31, N^ε24-[(4S)-4-[[(4S)-4-[[(4S)-4-[[(4S)-4-acetamido-4-carboxybutanoyl]amino]-4-carboxybutanoyl]amino]-4-carboxybutanoyl]amino]-4-carboxybutanoyl]-[His3,Glu15,Thr16,Lys24,Leu27,Ser28]-Glucagon] (H-HSHGTFTSDYSKYLETRRAQDFVK([γGlu-γGlu-γGlu-γGlu-Ac])WLLST-OH)	0.013
CC(=O)N[C@@H](CCC(=O)N[C@@H](CCC(=O)N[C@@H](CCC(=O)N[C@@H](CCC(=O)NCCCC[C@H](NC(=O)[C@@H](NC(=O)[C@H](Cc1ccccc1)NC(=O)[C@H](CC(=O)O)NC(=O)[C@H](CCC(N)=O)NC(=O)[C@H](C)NC(=O)[C@H](CCCNC(=N)N)NC(=O)[C@H](CCCNC(=N)N)NC(=O)[C@@H](NC(=O)[C@H](CC(=O)O)NC(=O)[C@H](CC(C)C)NC(=O)[C@H](Cc1ccc(O)cc1)NC(=O)[C@H](CCCNC(=N)N)NC(=O)[C@H](CO)NC(=O)[C@H](Cc1ccc(O)cc1)NC(=O)[C@H](CC(=O)O)NC(=O)[C@H](CO)NC(=O)[C@@H](NC(=O)[C@H](Cc1ccccc1)NC(=O)[C@@H](NC(=O)CNC(=O)[C@H](CCC(N)=O)NC(=O)[C@H](CO)NC(=O)[C@@H](N)Cc1c[nH]cn1)[C@@H](C)O)[C@@H](C)O)[C@@H](C)O)C(C)C)C(=O)N[C@@H](Cc1c[nH]c2ccccc12)C(=O)N[C@@H](CC(C)C)C(=O)N[C@@H](CC(C)C)C(=O)N[C@@H](CO)C(=O)N[C@H](C(=O)N1CCC[C@H]1C(=O)O)[C@@H](C)O)C(=O)O)C(=O)O)C(=O)O)C(=O)O [Example 26] (H-HSQGTFTSDYSRYLDTRRAQDFVK([γGlu-γGlu-γGlu-γGlu-Ac])WLLSTP-OH)	0.012
CC[C@H](C)[C@H](NC(=O)[C@H](CC(=O)O)NC(=O)[C@H](CC(C)C)NC(=O)[C@H](Cc1ccc(O)cc1)NC(=O)[C@H](CCCCN)NC(=O)[C@H](CO)NC(=O)[C@H](Cc1ccc(O)cc1)NC(=O)[C@H](CC(=O)O)NC(=O)[C@H](CO)NC(=O)[C@@H](NC(=O)[C@H](Cc1ccccc1)NC(=O)[C@@H](NC(=O)CNC(=O)[C@H](CCC(N)=O)NC(=O)[C@H](CO)NC(=O)[C@@H](N)Cc1c[nH]cn1)[C@@H](C)O)[C@@H](C)O)C(=O)N[C@@H](CCCNC(=N)N)C(=O)N[C@@H](CCCNC(=N)N)C(=O)N[C@@H](C)C(=O)N[C@@H](CCC(N)=O)C(=O)N[C@@H](CC(=O)O)C(=O)N[C@@H](Cc1ccccc1)C(=O)N[C@H](C(=O)N[C@@H](CCCCNC(=O)CC[C@H](NC(=O)CC[C@H](NC(=O)CC[C@H](NC(=O)CC[C@H](NC(C)=O)C(=O)O)C(=O)O)C(=O)O)C(=O)O)C(=O)N[C@@H](Cc1c[nH]c2ccccc12)C(=O)N[C@@H](CC(C)C)C(=O)N[C@@H](CC(C)C)C(=O)N[C@@H](CO)C(=O)N[C@H](C(=O)O)[C@@H](C)O)C(C)C [Example 36, N^ε24-[(4S)-4-[[(4S)-4-[[(4S)-4-[[(4S)-4-acetamido-4-carboxybutanoyl]amino]-4-carboxybutanoyl]amino]-4-carbox[…]ybutanoyl]amino]-4-carboxybutanoyl]-[Ile16,Lys24,Leu27,Ser28]-Glucagon]	0.0025

Continued by falling EC50, values first:

EC50 [nM]	Compound
0.02	CC(C)C[C@H](NC(=O)[C@H](CC(=O)O)NC(=O)[C@H](CC(C)C)NC(=O)[C@H](Cc1ccc(O)cc1)NC(=O)[C@H](CCCNC(=N)N)NC(=O)[C@H](CO)NC(=O)[C@H](Cc1ccc(O)cc1)NC(=O)[C@H](CC(=O)O)NC(=O)[C@H](CO)NC(=O)[C@@H](NC(=O)[C@H](Cc1ccccc1)NC(=O)[C@@H](NC(=O)CNC(=O)[C@H](CCC(N)=O)NC(=O)[C@H](CO)NC(=O)[C@@H](N)Cc1c[nH]cn1)[C@@H](C)O)[C@@H](C)O)C(=O)N[C@@H](CCCNC(=N)N)C(=O)N[C@@H](CCCNC(=N)N)C(=O)N[C@@H](C)C(=O)N[C@@H](C)C(=O)N[C@@H](CC(=O)O)C(=O)N[C@@H](Cc1ccccc1)C(=O)N[C@H](C(=O)N[C@@H](CCCCNC(=O)CC[C@H](NC(=O)CC[C@H](NC(=O)CC[C@H](NC(=O)CC[C@H](NC(=O)CCC(=O)O)C(=O)O)C(=O)O)C(=O)O)C(=O)O)C(=O)N[C@@H](Cc1c[nH]c2ccccc12)C(=O)N[C@@H](CC(C)C)C(=O)N[C@@H](CC(C)C)C(=O)N[C@@H](CO)C(=O)N[C@H](C(=O)O)[C@@H](C)O)C(C)C [Example 66, N^ε24-[(4S)-4-carboxy-4-[[(4S)-4-carboxy-4-[[(4S)-4-carboxy-4-[[(4S)-4-carboxy-4-(3-carboxypropanoylamino)butanoyl]amino]butanoyl]amino]butanoyl]amino]butanoyl]-[Arg^12,Leu^16,Ala^20,Lys^24,Leu^27,Ser^28]-Glucagon] (H-HSQGTFTSDYSRYLDLRRAADFVK([γGlu-γGlu-γGlu-γGlu-Suc])WLLST-OH)
0.02	CC(=O)N[C@@H](CCC(=O)N[C@@H](CCC(=O)N[C@@H](CCC(=O)N[C@@H](CCC(=O)NCCCC[C@H](NC(=O)[C@@H](NC(=O)[C@H](Cc1ccccc1)NC(=O)[C@H](CC(=O)O)NC(=O)[C@H](C)NC(=O)[C@H](C)NC(=O)[C@H](CCCNC(=N)N)NC(=O)[C@H](CCCNC(=N)N)NC(=O)[C@H](CC(C)C)NC(=O)[C@H](CC(=O)O)NC(=O)[C@H](CC(C)C)NC(=O)[C@H](Cc1ccc(O)cc1)NC(=O)[C@H](CCCNC(=N)N)NC(=O)[C@H](CO)NC(=O)[C@H](Cc1ccc(O)cc1)NC(=O)[C@H](CC(=O)O)NC(=O)[C@H](CO)NC(=O)[C@@H](NC(=O)[C@H](Cc1ccccc1)NC(=O)[C@@H](NC(=O)CNC(=O)[C@H](CCC(N)=O)NC(=O)[C@H](CO)NC(=O)[C@@H](N)Cc1c[nH]cn1)[C@@H](C)O)[C@@H](C)O)C(C)C)C(=O)N[C@@H](Cc1c[nH]c2ccccc12)C(=O)N[C@@H](CC(C)C)C(=O)N[C@@H](CC(C)C)C(=O)N[C@@H](CO)C(=O)N[C@H](C(=O)O)[C@@H](C)O)C(=O)O)C(=O)O)C(=O)O)C(=O)O [Example 56, N^ε24-[(4S)-4-[[(4S)-4-[[(4S)-4-[[(4S)-4-acetamido-4-carboxybutanoyl]amino]-4-carboxybutanoyl]amino]-4-carboxybutanoyl]amino]-4-carboxybutanoyl]-[Arg^12,Leu^16,Ala^20,Lys^24,Leu^27,Ser^28]-Glucagon] (H-HSQGTFTSDYSRYLDLRRAADFVK([γGlu-γGlu-γGlu-γGlu-Ac])WLLST-OH)
